In ChEMBL document CHEMBL2331280, “Cytotoxic, antitopoisomerase IIα, and anti-HIV-1 activities of triterpenoids isolated from leaves and twigs of Gardenia carinata” (J Nat Prod, 2013):
The source made the active and inactive calls. No cut-off for these calls is given here.

Columns and labels:
P388 = assay: Cytotoxicity against mouse P388 cells after 48 hrs by sulforhodamine B assay; format: functional; conditions: P388, 48 h, read-out: ED50 (the source's name)
HEK293 = assay: Cytotoxicity against human HEK293 cells after 72 hrs by sulforhodamine B assay; format: functional; conditions: HEK293, 72 h, read-out: ED50 (the source's name)
[1] = Cytotoxicity against human 1A2 cells assessed as inhibition of metabolic activity by XTT assay; format: ADME, cell-based
[2] = Selectivity index, ratio of IC50 for human 1A2 cells to EC50 for deltaTat/rev deffective HIV-1 MC99 infected in human 1A2 cells; format: toxicity, cell-based; conditions: read-out: Ratio IC50/EC50
[3] = target: Human immunodeficiency virus type 1 reverse transcriptase (Human immunodeficiency virus 1) (UniProt Q72547); assay: Inhibition of HIV-1 reverse transcriptase assessed as decrease in incorporation of [3H]TTP into polyA template at 200 ug/ml
Col2 = assay: Cytotoxicity against human Col2 cells after 72 hrs by sulforhodamine B assay; format: functional; conditions: Col2, 72 h, read-out: ED50 (the source's name)
KB = assay: Cytotoxicity against human KB cells after 72 hrs by sulforhodamine B assay; format: functional; conditions: read-out: ED50 (the source's name)
[4] = test system: Human immunodeficiency virus 1; assay: Antiviral activity against deltaTat/rev deffective HIV-1 MC99 infected in human 1A2 cells assessed as inhibition of syncytia formation after 3 days; format: functional, organism-based; conditions: Human immunodeficiency virus 1, MC99, 1A2, 72 h
[5] = Cytotoxicity against rat ASK cells after 72 hrs by sulforhodamine B assay; format: functional; conditions: read-out: ED50 (the source's name)
MCF7 = assay: Cytotoxicity against human MCF7 cells after 72 hrs by sulforhodamine B assay; format: functional; conditions: MCF7, 72 h, read-out: ED50 (the source's name)
[6] = target: Human immunodeficiency virus type 1 reverse transcriptase (Human immunodeficiency virus 1, UniProt Q72547); assay: Inhibition of HIV-1 reverse transcriptase assessed as decrease in incorporation of [3H]TTP into polyA template
Lu1 = assay: Cytotoxicity against human Lu1 cells after 72 hrs by sulforhodamine B assay; format: functional; conditions: Lu1, 72 h, read-out: ED50 (the source's name)
[7] = target: DNA topoisomerase 2-alpha (Homo sapiens) (UniProt P11388); assay: Inhibition of human DNA topoisomerase 2 alpha-mediated supercoiled pBR322 DNA relaxation at 20 uM after 1 hr by agarose gel electrophoresis
DNA topoisomerase 2-alpha (Homo sapiens), sequence (P11388 whole entry): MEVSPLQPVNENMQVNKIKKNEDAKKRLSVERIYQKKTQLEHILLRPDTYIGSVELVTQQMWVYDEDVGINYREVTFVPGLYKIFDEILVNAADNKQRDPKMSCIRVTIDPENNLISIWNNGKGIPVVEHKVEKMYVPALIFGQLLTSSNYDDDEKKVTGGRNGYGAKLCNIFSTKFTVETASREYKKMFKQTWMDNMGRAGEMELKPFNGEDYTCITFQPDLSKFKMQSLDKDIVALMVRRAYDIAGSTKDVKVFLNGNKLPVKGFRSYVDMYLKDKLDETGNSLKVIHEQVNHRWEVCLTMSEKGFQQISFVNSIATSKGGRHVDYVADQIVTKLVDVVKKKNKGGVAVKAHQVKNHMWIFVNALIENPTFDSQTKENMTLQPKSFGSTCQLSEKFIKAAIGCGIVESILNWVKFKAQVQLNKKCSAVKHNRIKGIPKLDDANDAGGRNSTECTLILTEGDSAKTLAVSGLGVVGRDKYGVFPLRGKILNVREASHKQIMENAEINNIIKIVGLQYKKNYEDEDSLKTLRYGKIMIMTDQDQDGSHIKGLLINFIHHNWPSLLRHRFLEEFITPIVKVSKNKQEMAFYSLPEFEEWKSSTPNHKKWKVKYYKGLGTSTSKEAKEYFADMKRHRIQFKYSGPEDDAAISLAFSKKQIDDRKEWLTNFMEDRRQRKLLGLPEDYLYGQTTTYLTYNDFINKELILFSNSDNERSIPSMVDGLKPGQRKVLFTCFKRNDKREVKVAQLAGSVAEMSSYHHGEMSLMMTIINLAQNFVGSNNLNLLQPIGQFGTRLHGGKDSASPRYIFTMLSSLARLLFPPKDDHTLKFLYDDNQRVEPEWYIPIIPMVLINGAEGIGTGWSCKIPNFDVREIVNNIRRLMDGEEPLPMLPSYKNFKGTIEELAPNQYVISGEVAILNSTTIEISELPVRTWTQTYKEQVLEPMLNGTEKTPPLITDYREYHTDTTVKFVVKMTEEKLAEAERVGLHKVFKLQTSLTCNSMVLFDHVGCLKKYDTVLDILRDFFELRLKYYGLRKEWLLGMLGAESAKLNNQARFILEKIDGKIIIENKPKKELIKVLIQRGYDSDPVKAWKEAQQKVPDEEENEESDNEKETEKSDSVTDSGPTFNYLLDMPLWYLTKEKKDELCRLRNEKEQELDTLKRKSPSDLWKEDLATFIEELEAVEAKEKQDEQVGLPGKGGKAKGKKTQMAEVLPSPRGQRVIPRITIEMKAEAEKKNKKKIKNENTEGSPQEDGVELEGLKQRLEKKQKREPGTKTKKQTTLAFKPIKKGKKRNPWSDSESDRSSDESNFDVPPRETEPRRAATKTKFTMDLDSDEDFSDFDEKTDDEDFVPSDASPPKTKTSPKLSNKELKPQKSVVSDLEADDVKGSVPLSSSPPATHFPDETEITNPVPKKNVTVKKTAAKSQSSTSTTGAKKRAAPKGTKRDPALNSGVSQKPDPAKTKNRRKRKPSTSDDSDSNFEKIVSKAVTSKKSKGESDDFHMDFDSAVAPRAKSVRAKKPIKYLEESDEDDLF

Structure (SMILES) | EC50 (P388) | EC50 (HEK293) | IC50 [1] | selectivity ratio [2] | inhibition [3] | EC50 (Col2) | EC50 (KB) | EC50 [4] | EC50 [5] | EC50 (MCF7) | IC50 [6] | EC50 (Lu1) | inhibition [7]
C=C(C(=O)O)[C@@H]1CC[C@@H]2[C@]3(CC[C@]4(C)[C@@H]([C@H](C)CC(=O)C=C(C)C)CC[C@@]24C)C[C@]13CCC(=O)O | > 10 µM | > 10 µM | 57.7 µM | > 7 | 88.1% | > 10 µM | > 10 µM | < 8.3 µM | > 10 µM | > 10 µM | 68.7 µM | > 10 µM | –
COc1cc([C@@H]2c3cc4c(cc3[C@@H](O[C@@H]3O[C@@H]5CO[C@@H](C)O[C@H]5[C@H](O)[C@H]3O)[C@H]3COC(=O)[C@H]23)OCO4)cc(OC)c1O | – | – | – | – | – | – | – | – | – | – | – | – | 59%
CC(C)CC(=O)C[C@@H](C)[C@H]1CC[C@@]2(C)[C@@H]3CC[C@H]4[C@](C)(C(=O)O)[C@@H](O)CC[C@@]45C[C@@]35CC[C@]12C (relative stereo) | 6.8 µM | > 10 µM | 72.5 µM | 1.2 | 1.9% | > 10 µM | > 10 µM | 62.7 µM | > 10 µM | > 10 µM | – | > 10 µM | Active
C=C1C(=O)O[C@@H]2C[C@@H]3[C@]4(CC[C@]5(C)[C@@H]([C@H](C)CC(=O)C=C(C)C)CC[C@@]35C)C[C@]4(CCC(=O)O)[C@H]12 (relative stereo) | 2.9 µM | 5.2 µM | < 8.1 µM | – | 81.2% | > 10 µM | 7.3 µM | – | > 10 µM | 7.7 µM | 85.7 µM | > 10 µM | Active
C=C1C(=O)O[C@@H]2C[C@@H]3[C@]4(CC[C@]5(C)[C@@H]([C@H](C)CC(=O)CC(C)(C)O)CC[C@@]35C)C[C@]4(CCC(=O)OC)[C@H]12 (relative stereo) | 1.4 µM | 4.1 µM | < 15.2 µM | – | 35.9% | 6.2 µM | 6.8 µM | – | 5.8 µM | 5.2 µM | – | 7.2 µM | Active
C=C(C(=O)O)[C@@H]1CC[C@@H]2[C@]3(CC[C@]4(C)[C@@H]([C@H](C)CC(=O)C=C(C)C)CC[C@@]24C)C[C@]13CCC(=O)OC (relative stereo) | > 10 µM | > 10 µM | 69.5 µM | 1.6 | 63.7% | > 10 µM | > 10 µM | 43 µM | > 10 µM | > 10 µM | – | > 10 µM | –
C=C1COC(=O)CC[C@]23C[C@]24CC[C@]2(C)[C@@H]([C@H](C)CC(=O)C=C(C)C)CC[C@@]2(C)[C@@H]4CC[C@@H]13 (relative stereo) | > 10 µM | > 10 µM | > 138 µM | > 3.4 | 11.6% | > 10 µM | > 10 µM | 41.3 µM | > 10 µM | > 10 µM | – | > 10 µM | –
CC(C)CC(=O)C[C@@H](C)[C@H]1CC[C@@]2(C)[C@@H]3CC[C@H]4[C@](C)(C(=O)O)[C@@H](O)C[C@H](O)[C@@]45C[C@@]35CC[C@]12C [CARINATIN A] | > 10 µM | > 10 µM | 27 µM | 1.8 | 6% | > 10 µM | > 10 µM | 15.4 µM | > 10 µM | > 10 µM | – | > 10 µM | –
C=C(CO)[C@@H]1CC[C@@H]2[C@H](CC[C@]3(C)[C@@H]([C@H](C)CC(=O)C=C(C)C)CC[C@@]23C)C[C@]12CCC(=O)O2 [CARINATIN G] | 4.9 µM | > 10 µM | 46 µM | 3.4 | 25.5% | > 10 µM | > 10 µM | 13.4 µM | > 10 µM | > 10 µM | – | > 10 µM | Active
Cc1c2ccncc2c(C)c2c1[nH]c1ccccc12 [ELLIPTECINE] | 1.9 µM | 1.9 µM | – | – | – | 2.2 µM | 2.2 µM | – | 2.2 µM | 2.3 µM | – | 1.1 µM | –
COc1cc2c(ccc3c4cc(OC)c(OC)cc4c[n+](C)c23)cc1O [FAGARONINE] | – | – | – | – | – | – | – | – | – | – | 26.5 µM | – | –
C=C1C(=O)O[C@@H]2C[C@@H]3[C@]4(CC[C@]5(C)[C@@H]([C@H](C)CC(=O)C=C(C)C)CC[C@@]35C)C[C@]4(CCC(=O)OC)[C@H]12 [SECAUBRYOLIDE] | 1 µM | 3.2 µM | < 7.9 µM | – | 0.4% | 5.8 µM | 2 µM | – | 4.6 µM | 4.2 µM | – | 5 µM | Active
Cc1cn([C@H]2C[C@H](N=[N+]=[N-])[C@@H](CO)O2)c(=O)[nH]c1=O [ZIDOVUDINE] | – | – | > 10000 µM | – | – | – | – | 0.00395 µM | – | – | – | – | –
